Patent US12458621B1, “Application of genipin beta-methyl derivative gen-17 in preparation of drug for prevention and treatment of acute severe pneumonia” (KUNMING MEDICAL UNIVERSITY, priority 2024, dated 2025)

Tests used:
Format in all cases: in vivo, Kunming mice
[1] = test system: IL-1β; assay: IL-1β mRNA in lung tissue by qRT-PCR; settings: Gen-17 (12.5, 25, 50 mg/kg gavage) compared with LPS group (P<0.001)
Protocol: (§1) A total of 144 SPF-grade healthy Kunming mice, aged 5-7 weeks and weighing 18-22 g, are weighed and randomly allocated into six experimental groups: control group (NS), model group (LPS), dexamethasone group (DEX, […] per kilogram abbreviated as mg/kg), genipin beta-methyl derivative low-dose group (12.5 mg/kg), genipin beta-methyl derivative medium-dose group (25 mg/kg), and genipin beta-methyl derivative high-dose group (50 mg/kg), 24 animals per group, in which 12 animals are used to take lung tissue for the detection of other indicators, and another 12 animals are used to collect BALF. […]
(§2) Samples are collected 24 hours after the animal model is established. […] Lung tissues are collected and the whole lung wet weight is measured. […] After tidying, the lungs are photographed, excess tissues such as the trachea are cleared away, and the wet weight of the whole lung is measured to calculate the lung index. • (3) The upper lobe of the left lung is fixed in 4% neutral paraformaldehyde, fixed for 24 hours, paraffin-embedded and sectioned for HE staining. • (4) The remaining lung tissues are put into centrifugal tubes separately, quickly frozen in liquid nitrogen, and then stored at −80° C. after the experiment, which is used for the detection of MDA, SOD, western blotting (WB) and reverse transcription polymerase chain reaction (RT-PCR). […]

[2] = test system: Keap1; assay: Keap1 protein in lung tissue by WB
Protocol: (§3) The dosage is converted according to the weight of the mice, and the gavage volume is 20 milliliters per kilogram (mL/kg), and the gavage is continued for 3 days. One hour after the gavage on the third day, the ALI model is established by tracheal instillation of LPS solution. […] After the mice are awake, they are raised as usual. 2.3 Treatment of Experimental Animals and Collection of Lung Tissue Specimens
(§4) Samples are collected 24 hours after the animal model is established. The mice are weighed and 12 mice in each group are sacrificed. Lung tissues are collected and the whole lung wet weight is measured. […] After tidying, the lungs are photographed, excess tissues such as the trachea are cleared away, and the wet weight of the whole lung is measured to calculate the lung index. • (3) The upper lobe of the left lung is fixed in 4% neutral paraformaldehyde, fixed for 24 hours, paraffin-embedded and sectioned for HE staining. • (4) The remaining lung tissues are put into centrifugal tubes separately, quickly frozen in liquid nitrogen, and then stored at −80° C. after the experiment, which is used for the detection of MDA, SOD, western blotting (WB) and reverse transcription polymerase chain reaction (RT-PCR). […]
(§5) The lung tissue is taken out from −80° C., and its weight is accurately measured. […]

[3] = test system: LPS-induced ALI mice; assay: Lung index (lung wet weight/body weight), LPS-induced ALI mice
Protocol: A total of 144 SPF-grade healthy Kunming mice, aged 5-7 weeks and weighing 18-22 g, are weighed and randomly allocated into six experimental groups: control group (NS), model group (LPS), dexamethasone group (DEX, […] per kilogram abbreviated as mg/kg), genipin beta-methyl derivative low-dose group (12.5 mg/kg), genipin beta-methyl derivative medium-dose group (25 mg/kg), and genipin beta-methyl derivative high-dose group (50 mg/kg), 24 animals per group, in which 12 animals are used to take lung tissue for the detection of other indicators, and another 12 animals are used to collect BALF.
All mice are gavaged with a same volume of 0.9% normal saline once a day in the NS group and the LPS group, DEX solution (0.39 mg/kg) is gavaged once a day in the DEX group, low-dose Gen-17 solution (12.5 mg/kg) is gavaged once a day in the medium-dose Gen-17 group, medium-dose Gen-17 solution (25 mg/kg) is gavaged once a day in the high-dose Gen-17 group, and high-dose Gen-17 solution (50 mg/kg) is gavaged once a day in the high-dose Gen-17 group. The dosage is converted according to the weight of the mice, and the gavage volume is 20 milliliters per kilogram (mL/kg), and the gavage is continued for 3 days. One hour after the gavage on the third day, the ALI model is established by tracheal instillation of LPS solution. The specific experimental procedures are as follows. • (1) Before the operation, the mice are anesthetized by intraperitoneal injection of 1% sodium pentobarbital (30 mg/kg) according to their body weight. • (2) Limbs of anesthetized mice are fixed with rubber bands, teeth are wired with thin threads, and neck skin is disinfected with 75% alcohol. • (3) A subcutaneous tissue is separated along a longitudinal incision in a middle of the mouse neck until a cartilage ring appeared in an exposed trachea. • (4) A microinjector is inserted into the trachea in parallel towards a proximal end for about 1 centimeter (cm). Sterile NS is slowly dripped into the trachea of the control group, and LPS is dripped into the trachea of the other groups. • (5) After pulling out the microinjector, the mice are upright immediately, rotated and shaken evenly for 2 minutes (min), then the neck wound is sutured, and the state of the mice is observed. After the mice are awake, they are raised as usual. 2.3 Treatment of Experimental Animals and Collection of Lung Tissue Specimens
as §4, with “measured. The lung tissues are packaged for hematoxylin and eosin (HE) staining, MDA and SOD content determination, gene and protein detection.” for “measured.”

[4] = test system: LPS-induced ALI mice; assay: HE staining histopathology and alveolitis score of lung tissue; settings: for pathological scores of alveolitis: compared with DEX group (P<0.05)
Protocol: as §3
Samples are collected 24 hours after the animal model is established. The mice are weighed and 12 mice in each group are sacrificed. Lung tissues are collected and the whole lung wet weight is measured. The lung tissues are packaged for hematoxylin and eosin (HE) staining, MDA and SOD content determination, gene and protein detection. The specific experimental procedures are as follows. • (1) 12 mice in each group are weighed and their necks are dislocated and sacrificed. • (2) The mice are fixed. The abdomen is wiped with 75% alcohol. The thoracic cavity is then opened, and the lung tissue is removed. After tidying, the lungs are photographed, excess tissues such as the trachea are cleared away, and the wet weight of the whole lung is measured to calculate the lung index. • (3) The upper lobe of the left lung is fixed in 4% neutral paraformaldehyde, fixed for 24 hours, paraffin-embedded and sectioned for HE staining. • (4) The remaining lung tissues are put into centrifugal tubes separately, quickly frozen in liquid nitrogen, and then stored at −80° C. after the experiment, which is used for the detection of MDA, SOD, western blotting (WB) and reverse transcription polymerase chain reaction (RT-PCR). 2.4 BALF Collection and Processing

[5] = test system: NF-κB p65; assay: NF-κB p65 protein in lung tissue by WB
Protocol: as §1, §2

[6] = test system: Nrf2; assay: Nrf2 protein in lung tissue by WB
Protocol: as §3, §4, §5

[7] = test system: JNK phosphorylated protein; assay: JNK phosphorylated protein in lung tissue by WB
Protocol: as §1, §2

[8] = test system: MDA; assay: MDA content in lung tissue; settings: after drug treatment, compared with LPS group
Protocol: as §1, §2

[9] = test system: IKKα/β; assay: IKKα/β mRNA in lung tissue by qRT-PCR; settings: Gen-17 (12.5, 25, 50 mg/kg gavage) compared with LPS group (P<0.001)
Protocol: as §1, §2

[10] = Gen-17 12.5, 25, 50 mg/kg gavage, ALI mice
[11] = high-dose Gen-17 50 mg/kg gavage, compared with LPS group

COC(=O)C1=CO[C@@H](OC)[C@@H]2C(COC(=O)c3cccc(Br)c3)=CC[C@H]12 [Gen-17, genipin beta-methyl derivative]
mRNA expression of IL-1β in lung tissue [1]: significantly reduce the expression
expression of Keap1 protein in lung tissue, overall result [2, 10]: downregulate the expression of Keap1 protein
expression of Keap1 protein in lung tissue (decrease) [2, 11]: statistically significant (P<0.001)
degree of pulmonary edema (lung index), overall result [3, 10]: reduce the degree of pulmonary edema in ALI mice to varying degrees
lung index ([3]; Gen-17 groups (12.5, 25, 50 mg/kg gavage) compared with NS group): statistically significant (P<0.05)
lung index [3, 11]: statistically significant (P<0.01)
lung index ([3]; low-dose Gen-17 12.5 mg/kg gavage, compared with DEX group (P<0.05)): increases most significantly
lung index ([3]; medium-dose Gen-17 25 mg/kg gavage, compared with LPS group): statistically significant (P<0.01)
pathological damage of lung tissue (HE staining) ([4]; Gen-17 groups (12.5, 25, 50 mg/kg gavage) compared with LPS group): significantly alleviate the pathological damage
pathological score of lung tissue ([4]; high-dose Gen-17 50 mg/kg gavage, compared with LPS group (P<0.01)): significantly reduced
pathological scores of alveolitis ([4]; low-dose Gen-17 12.5 mg/kg gavage): increased
pathological scores of alveolitis ([4]; medium-dose Gen-17 25 mg/kg gavage): increased
expression of NF-κB p65 protein in lung tissue ([5]; Gen-17 groups (12.5, 25, 50 mg/kg gavage) compared with NS group (P<0.001, P<0.05)): significantly increased
expression of NF-κB p65 protein in lung tissue ([5]; after drug treatment, compared with LPS group (P<0.05)): down-regulate the expression of NF-κB p65 protein
expression of Nrf2 protein in lung tissue, overall result [6, 10]: upregulate the expression of Nrf2 and HO-1 protein
expression of Nrf2 protein in lung tissue (increase) ([6]; medium-dose Gen-17 25 mg/kg gavage, compared with LPS group (P<0.05)): statistically significant
expression of JNK phosphorylated protein in lung tissue ([7]; after drug treatment, compared with LPS group): down-regulate the expression of p38, ERK and JNK proteins
expression of JNK phosphorylated protein in lung tissue ([7]; low-dose Gen-17 12.5 mg/kg gavage, compared with DEX group): statistically significant (P<0.05)
MDA content in the lung tissue homogenate [8]: reduce the MDA content
mRNA expression of IKKα/β in lung tissue [9]: significantly reduce the expression
